In publication PMC7363588, “Mapping of the FGF14:Nav1.6 complex interface reveals FLPK as a functionally active peptide modulating excitability” (Physiological Reports, 2020):
Entries after “also recorded” stand apart in the source; their conditions may differ. Peptide text beside a SMILES is read from it.

Test system: persistent sodium current (I NaP) from MSNs in the nucleus accumbens
Experiment: Brain slice voltage-clamp: persistent Na^+ current (I NaP) in MSNs
Format: cell-based, male C57BL6/J mice
Description: Brain slices from male C57BL6/J mice aged 28–45 days were prepared to contain the nucleus accumbens (NAc). Mice were anesthetized with Isoflurane (Baxter, Deerfield, IL) and brains extracted following decapitation. Brains were sliced with a vibratome (Leica Microsystems, Wetzlar, Germany) to achieve 300 μm coronal slices. Brains sliced in extracellular salts; consisting of the following (mM): Tris‐HCl 72, Tris‐Base18, NaH2PO4 1.2, KCl 2.5, HEPES 20, sucrose 20, NaHCO3 25, glucose 25, MgSO4 10, Na‐pyruvate 3, Na‐ascorbate 5 and CaCl2 0.5 (Sigma‐Aldrich, St. Louis, MO); 300–310 mOsm, pH 7.4 and was continuously oxygenated (mixture of 95%/5% O2/CO2). […] Evoked action potentials with a range of current injections from 10 pA to 220 pA with 800 ms every 10 pA were measured and number of action potentials, instantaneous frequency, and other electrical parameters were determined. […] The voltage‐dependence of I NaP was determined using standard protocols (Yue, Remy, Su, Beck, & Yaari, 2005). […] Membrane capacitance was calculated using the equation: capacitance = membrane time constant/input resistance (Meitzen, Weaver, Brenowitz, & Perkel, 2009). The membrane input resistance was measured by a series of 600 ms hyperpolarizing current steps from −50 to 0 pA, step 10 pA with 1 s interval. […]

In the case of `CC(=O)N[C@@H](Cc1ccccc1)C(=O)N[C@@H](CC(C)C)C(=O)N1CCC[C@H]1C(=O)N[C@@H](CCCCN)C(N)=O` [FLPK] (Ac-FLPK-NH2), the “effect on I NaP” value (50 µM FLPK vs 0.1% DMSO) is reported as “increase in persistent sodium current; also recorded: potentiated persistent Na^+ currents” and the “persistent sodium current (I NaP)” value (50 µM FLPK, slow voltage ramps (50 mV/s), TTX-subtracted, control 111.4 ± 15.7 pA, p < .03, n = 14) is reported as −158.2 ± 14.2 pA.
